Entries after “also recorded” stand apart in the source; their conditions may differ. Where two headings read alike, the source gives them in different places.
Tests used:
[1] = cited from earlier work
[2] = log Papp, octanol/TRIS buffer pH 7.4, shake flask direct method; format: physicochemical; conditions: not told
From the text: The redesign of 2 was predicated on the observation that both ligands 2 and 3 were orally active iron chelators in rodents and primates (Table 1), and that when the 4′-(OH) of 2 was methylated, providing (S)-4,5-dihydro-2-(2-hydroxy-4-methoxyphenyl)-4-methyl-4-thiazolecarboxylic acid^43 [(S)-4′-(CH3O)-DADFT, 4], there was a remarkable enhancement in both ICE and lipophilicity (log Papp). The log Papp data are expressed as the log of the fraction of the chelator seen in the octanol layer; measurements were done in TRIS buffer, pH 7.4, using a “shake flask” direct method.^49 The more negative the log Papp, the less chelator is in the octanol phase, the less lipophilic. Unfortunately, the increase in ICE of 4 came with a concomitant increase in toxicity.^50 Thus, the delicate balance between the increase in ICE and toxicity with enhanced lipophilicity needed to be understood and exploited.

[3] = po, 300 μmol/kg; historical; cited from earlier work
[4] = po, 150 μmol/kg; historical; cited from earlier work
[5] = Chelator-induced iron clearance (ICE) in iron-overloaded Cebus apella primates; format: in vivo, Cebus apella monkeys; conditions: 75 μmol/kg, monosodium salt
Description: Iron Loading of Cebus apella Monkeys. The monkeys (3.5-6.5 kg) were iron overloaded with intravenous iron dextran as specified in earlier publications to provide about 500 mg of iron per kg of body weight; the serum transferrin iron saturation rose to between 70 and 80%.^38,40 At least 20 half-lives, 60 days, elapsed before any of the animals were used in experiments evaluating iron-chelating agents.
Primate Fecal and Urine Samples. Fecal and urine samples were collected at 24 hours intervals and processed as described previously^38,40,74 Briefly, the collections began 4 days prior to the administration of the test drug and continued for an additional 5 days after the drug was given. Iron concentrations were determined by flame absorption spectroscopy as presented in other publications.^38′^40
Drug Preparation and Administration.
Calculation of Chelator Iron Clearing Efficiency (ICE).

[6] = Tissue distribution/metabolism of chelators in rats given sc (HPLC); format: in vivo, Sprague-Dawley rats
Description: Collection of Chelator Tissue Distribution Samples from Rodents. Male Sprague-Dawley rats (250-350 g) were given a single subcutaneously injection of the monosodium salts of 8 and 11 prepared as described above at a dose of […]. At times 0.5, 1, 2, 4 and 8 hours after dosing (n=3 rats per time point), the animals were euthanized by exposure to CO2 gas. Blood was obtained via cardiac puncture into vacutainers containing sodium citrate. The blood was centrifuged, and the plasma was separated for analysis. The liver, kidney, heart, and pancreas were removed from the animals and frozen.
Tissue Analytical Methods. Tissue samples of animals treated with 8 were prepared for HPLC analysis by homogenizing them in H2O at a ratio of 1:1 (w/v). Then, as a rinse, CH3OH at a ratio of 1:3 (w/v) was added, and the mixture was stored at −20° C. for 30 min. This homogenate was centrifuged. The supernatant was diluted with H2O, vortexed, and filtered with a 0.2 μm membrane. Analytical separation was performed on a Supelco Discovery RP Amide C16 HPLC system with UV detection at 310 nm as described previously.^44,75 Mobile phase and chromatographic conditions were as follows: solvent A, 5% CH3CN/95% buffer (25 mM KH2PO4+2.5 mM 1-octanesulfonic acid, pH 3.0); solvent B, 60% CH3CN/40% buffer.
Tissue samples of animals treated with 11 were prepared for HPLC analysis by homogenizing them in 0.5 N HClO4 at a ratio of 1:3 (w/v). Then, as a rinse, CH3OH at a ratio of 1:3 (w/v) was added, and the mixture was stored at −20° C. for 30 min. This homogenate was centrifuged. The supernatant was diluted with 95% buffer (25 mM KH2PO4, pH 3.0)/5% CH3CN, vortexed, and filtered with a 0.2 μm membrane. Analytical separation was performed on a Supelco Ascentis Express RP-Amide HPLC system with UV detection at 310 nm as described previously. Mobile phase and chromatographic conditions were as for 8.
Ligand concentrations were calculated from the peak area fitted to calibration curves by nonweighted least-squares linear regression with Shimadzu Class-VP 7.4 software.

[7] = for Rat ICE (%): 300 μmol/kg, monosodium salt
Description: Sample collection and handling are as previously described.^38,40
Drug Preparation and Administration. In the iron clearing experiments, the rats were given 8-14 orally at a dose of 300 μmol/kg. […] The chelators were administered as their monosodium salts (prepared by the addition of 1 equiv of NaOH to a suspension of the free acid in distilled water).
Calculation of Chelator Iron Clearing Efficiency (ICE). The term “ICE” is used as a measure of the amount of iron excretion induced by a chelator. The ICE, expressed as a percent, is calculated as (ligand-induced iron excretion/theoretical iron excretion)×100. […] The theoretical iron outputs of the chelators were generated on the basis of a 2:1 ligand:iron complex. The efficiencies in the rats and monkeys were calculated as set forth elsewhere.^37 Data are presented as the mean±the standard error of the mean; p-values were generated via a one-tailed Student's t-test in which the inequality of variances was assumed, and a p-value of <0.05 was considered significant.

## CCCCOc1ccc(C2=N[C@@H](C(=O)O)CS2)c(O)c1 [4′-butoxy analogue of 2, (S)-2-(4-butoxy-2-hydroxyphenyl)-4,5-dihydro-4-thiazolecarboxylic acid]
[1]; same scenario as with 10
  time of deaths: ≤ 24 h

## C[C@]1(C(=O)O)CSC(c2ccccc2O)=N1 [Compound 1a, (S)-4,5-dihydro-2-(2-hydroxyphenyl)-4-methyl-4-thiazolecarboxylic acid]
[1]; in vivo
  gastrointestinal toxicity: serious gastrointestinal (GI) problems
  nephrotoxicity: not overtly nephrotoxic

## C[C@]1(C(=O)O)CSC(c2cccc(O)c2O)=N1 [Compound 3, (S)-2-(2,3-dihydroxyphenyl)-4,5-dihydro-4-methyl-4-thiazolecarboxylic acid]
[2]
  Log Papp: −1.17
[3]
  Rodent ICE (%): 4.6 ± 0.9%
[4]
  Primate ICE (%): 23.1 ± 5.9%

## C[C@]1(C(=O)O)CSC(c2ccc(OCCOCCO)cc2O)=N1 [Compound 8, (S)-4,5-dihydro-2-[2-hydroxy-4-(5-hydroxy-3-oxapentyloxy)phenyl]-4-methyl-4-thiazolecarboxylic acid]
[2]
  Log Papp: −0.53
[5]; po
  Cebus ICE (%): 9.8±3.4%
[6]; sc 7, plasma, 0.5 hour
  share of total drug concentration: 5%
[6]; sc 8, 300 μmol/kg, liver, 0.5 hour
  share of drug (parent+metabolite): 53%
[6]; sc 8, 300 μmol/kg, liver, 8 hours
  detection in liver: very little parent alcohol 8
[6]; sc 8, 300 μmol/kg, plasma, 0.5 hour post drug
  proportion of 8 converted to 9: ~60%
[6]; sc 8, 300 μmol/kg, plasma, 8 hour
  detection in plasma: Neither the parent 8 nor the metabolite 9 was found at the 8 hour time point
[6]; sc 8, 300 μmol/kg, tissues
  conversion of 8 to 9: very efficiently oxidized to carboxylic acid 9; also recorded: very efficiently converted to acid 9; also recorded: very quickly oxidized to 9
[7]; po
  Rat ICE (%): 15.4 ± 5.6%

## COCCCCCCOc1ccc(C2=N[C@@](C)(C(=O)O)CS2)c(O)c1 [Compound 10, (S)-4,5-dihydro-2-[2-hydroxy-4-(6-methoxyhexyloxy)phenyl]-4-methyl-4-thiazolecarboxylic acid]
[2]
  Log Papp: 0.95
[7]; po 300 μmol/kg, bile duct-cannulated rats, one animal
  time of death post drug: about 22 hours
[7]; po 300 μmol/kg, 6 hours post drug
  drug-induced iron excretion, peak: 300 μg/kg of iron
[7]; po 300 μmol/kg, 24 hours post dosing
  drug-induced iron excretion: 80 μg/kg of iron
[7]; po
  Rat ICE (%): 15.8 ± 3.7%
[7]; rats, po 300 μmol/kg, single dose
  overt toxicity: profoundly toxic; also recorded: very toxic; also recorded: Toxic in Rats

## C[C@]1(C(=O)O)CSC(c2ccc(OCCCCCC(=O)O)cc2O)=N1 [Compound 12, (S)-4,5-dihydro-2-[2-hydroxy-4-(5-carboxypentyloxy)phenyl]-4-methyl-4-thiazolecarboxylic acid]
[2]
  Log Papp: −1.90
[5]; po
  Cebus ICE (%): 10.6±4.0%
[5]; sc
  Cebus ICE (%): 18.8±8.7%
[6]; sc 11, heart
  detection in heart: not found in the cardiac tissue at any of the time points
[6]; sc 11, kidney
  detection in kidney: found at 0.5 and 1 hour post drug
[6]; sc 11, liver
  detection in liver: not detected in the liver 2, 4, or 8 hours post dosing
[6]; sc 11, liver, 0.5 hour
  share of total drug (parent+metabolites): 11%
[6]; sc 11, liver, 1 hour
  share of total drug (parent+metabolites): 2%
[6]; sc 11, pancreas
  detection in pancreas: not found at any of the time points
[6]; sc 11, plasma
  detection in plasma: None of the first oxidation product of alcohol 11, the dicarboxylic acid 12, was detected in the plasma
[7]; po
  Rat ICE (%): 8.8 ± 1.8%
[7]; sc
  Rat ICE (%): 6.5 ± 1.5%

## C[C@]1(C(=O)O)CSC(c2ccc(OCCCC(=O)O)cc2O)=N1 [Compound 13, (S)-4,5-dihydro-2-[2-hydroxy-4-(3-carboxypropyloxy)phenyl]-4-methyl-4-thiazolecarboxylic acid]
[2]
  Log Papp: −2.21
[5]; po
  Cebus ICE (%): 5.4±1.5%
[5]; sc
  Cebus ICE (%): 18.1±7.5%
[6]; sc 11, heart
  detection in heart: not found in the later time points
[6]; sc 11, heart, 0.5 hour
  tissue concentration: ~46 nmol/g wet weight
[6]; sc 11, heart, 1 hour
  tissue concentration: ~46 nmol/g wet weight
[6]; sc 11, kidney
  detection in kidney: not detectable 8 hours post dosing
[6]; sc 11, kidney, 0.5 hour
  tissue concentration: ~300 nmol/g wet weight
[6]; sc 11, kidney, 1 hour
  tissue concentration: ~300 nmol/g wet weight
[6]; sc 11, liver
  detection in liver: no 13 remained in the liver
[6]; sc 11, liver, 0.5 hour
  share of total drug (parent+metabolites): 71%
[6]; sc 11, liver, 1 hour
  share of total drug (parent+metabolites): 59%
[6]; sc 11, liver, 2 hours
  share of total drug (metabolites): 66%
[6]; sc 11, liver, 4 hours
  share of total drug (metabolites): 70%
[6]; sc 11, pancreas, 0.5 hour
  tissue concentration: 19 nmol/g wet weight
[6]; sc 11, pancreas, 1 hour
  tissue concentration: 23 nmol/g wet weight
[6]; sc 11, plasma, 0.5 hour
  share of total (parent+metabolites): 62%
[6]; sc 11, plasma, 4 hours
  share of total (parent+metabolites): 50%
[6]; sc 11, plasma, 8 hours
  share of total (parent+metabolites): 65%
[7]; po
  Rat ICE (%): 3.7 ± 1.7%
[7]; sc
  Rat ICE (%): 4.3 ± 1.1%

## C[C@]1(C(=O)O)CSC(c2ccc(OCC(=O)O)cc2O)=N1 [Compound 14, (S)-4,5-dihydro-2-[2-hydroxy-4-(carboxymethoxy)phenyl]-4-methyl-4-thiazolecarboxylic acid]
[2]
  Log Papp: −1.98
[5]; po
  Cebus ICE (%): 3.0±2.7%
[5]; sc
  Cebus ICE (%): 15.9±4.3%
[6]; sc 11, heart
  detection in heart: not found in the 2-8 hour time points
[6]; sc 11, heart, 0.5 hour
  tissue concentration: 17 nmol/g wet weight
[6]; sc 11, heart, 1 hour
  tissue concentration: 23 nmol/g wet weight
[6]; sc 11, kidney, 0.5 hour
  tissue concentration: 156 nmol/g wet weight
[6]; sc 11, kidney, 1 hour
  tissue concentration: 201 nmol/g wet weight
[6]; sc 11, kidney, 2 hours
  tissue concentration: 161 nmol/g wet weight
[6]; sc 11, kidney, 8 hours
  tissue concentration: 5 nmol/g wet weight
[6]; sc 11, liver
  detection in liver: only trace amounts of 14 were detected
[6]; sc 11, liver, 0.5 hour
  share of total drug (parent+metabolites): 18%
[6]; sc 11, liver, 1 hour
  share of total drug (parent+metabolites): 39%
[6]; sc 11, pancreas
  detection in pancreas: Trace amounts of 14 were found at 0.5, 1, and 2 hours post dosing
[6]; sc 11, plasma, 0.5 hour
  share of total (parent+metabolites): 16%
[6]; sc 11, plasma, 4 hours
  share of total (parent+metabolites): 50%
[6]; sc 11, plasma, 8 hours
  share of total (parent+metabolites): the remainder
[7]; po
  Rat ICE (%): 2.6 ± 1.6%
[7]; sc
  Rat ICE (%): 6.0 ± 1.9%

From patent US10570104B2, “Metabolically programmed metal chelators and uses thereof” (University of Florida Research Foundation, Incorporated, priority 2015, dated 2020)
